Measured values from ChEMBL document CHEMBL2177017, “Vascular endothelial growth factor (VEGF) receptors: drugs and new inhibitors” (J Med Chem, 2012).
One block for each compound: values may come before it.

Tests used:
[1] = target: Vascular endothelial growth factor receptor 2 (Homo sapiens, UniProt P35968); assay: Inhibition of VEGFR2
[2] = target: Vascular endothelial growth factor receptor 1 (Homo sapiens, UniProt P17948); assay: Inhibition of VEGFR1
[3] = target: Vascular endothelial growth factor receptor 3 (Homo sapiens, UniProt P35916); assay: Inhibition of VEGFR3
[4] = test system: HepG2; assay: Antitumor activity against human HepG2 cells xenografted mouse assessed as inhibition of tumor growth at 100 mg/kg qd for 18 days; type: functional; settings: HepG2, 432 h, read-out: TGI
[5] = test system: SW-620; assay: Antitumor activity against human SW620 cells xenografted mouse assessed as inhibition of tumor growth at 100 mg/kg qd for 18 days; type: functional; settings: SW-620, 432 h, read-out: TGI
[6] = species on record: Danio rerio; assay: Antiangiogenic activity in zebrafish embryos assessed as inhibition of intersegmental vessel growth at 2.5 uM; type: functional, Embryo
[7] = test system: HUVEC; assay: Antiangiogenic activity in HUVEC assessed as inhibition of tube formation at 10 uM; type: functional; settings: Homo sapiens
[8] = target: Fibroblast growth factor receptor 2 (Homo sapiens, UniProt P21802); assay: Inhibition of FGFR2
[9] = target: Fibroblast growth factor receptor 1 (Homo sapiens, UniProt P11362); assay: Inhibition of FGFR1
[10] = target: Platelet-derived growth factor receptor beta (Homo sapiens, UniProt P09619); assay: Inhibition of PDGFRbeta
[11] = target: Mast/stem cell growth factor receptor Kit (Homo sapiens, UniProt P10721); assay: Inhibition of c-Kit
[12] = target: Tyrosine-protein kinase Lck (Homo sapiens, UniProt P06239); assay: Inhibition of LCK
[13] = target: RAF proto-oncogene serine/threonine-protein kinase (Homo sapiens, UniProt P04049); assay: Inhibition of c-Raf
[14] = test system: Mus musculus; assay: Antitumor activity against human tumor xenografted athymic mouse assessed as inhibition of tumor growth; type: functional
[15] = Inhibition of FGFRbeta

Sequence of Vascular endothelial growth factor receptor 3 (P35916 whole entry): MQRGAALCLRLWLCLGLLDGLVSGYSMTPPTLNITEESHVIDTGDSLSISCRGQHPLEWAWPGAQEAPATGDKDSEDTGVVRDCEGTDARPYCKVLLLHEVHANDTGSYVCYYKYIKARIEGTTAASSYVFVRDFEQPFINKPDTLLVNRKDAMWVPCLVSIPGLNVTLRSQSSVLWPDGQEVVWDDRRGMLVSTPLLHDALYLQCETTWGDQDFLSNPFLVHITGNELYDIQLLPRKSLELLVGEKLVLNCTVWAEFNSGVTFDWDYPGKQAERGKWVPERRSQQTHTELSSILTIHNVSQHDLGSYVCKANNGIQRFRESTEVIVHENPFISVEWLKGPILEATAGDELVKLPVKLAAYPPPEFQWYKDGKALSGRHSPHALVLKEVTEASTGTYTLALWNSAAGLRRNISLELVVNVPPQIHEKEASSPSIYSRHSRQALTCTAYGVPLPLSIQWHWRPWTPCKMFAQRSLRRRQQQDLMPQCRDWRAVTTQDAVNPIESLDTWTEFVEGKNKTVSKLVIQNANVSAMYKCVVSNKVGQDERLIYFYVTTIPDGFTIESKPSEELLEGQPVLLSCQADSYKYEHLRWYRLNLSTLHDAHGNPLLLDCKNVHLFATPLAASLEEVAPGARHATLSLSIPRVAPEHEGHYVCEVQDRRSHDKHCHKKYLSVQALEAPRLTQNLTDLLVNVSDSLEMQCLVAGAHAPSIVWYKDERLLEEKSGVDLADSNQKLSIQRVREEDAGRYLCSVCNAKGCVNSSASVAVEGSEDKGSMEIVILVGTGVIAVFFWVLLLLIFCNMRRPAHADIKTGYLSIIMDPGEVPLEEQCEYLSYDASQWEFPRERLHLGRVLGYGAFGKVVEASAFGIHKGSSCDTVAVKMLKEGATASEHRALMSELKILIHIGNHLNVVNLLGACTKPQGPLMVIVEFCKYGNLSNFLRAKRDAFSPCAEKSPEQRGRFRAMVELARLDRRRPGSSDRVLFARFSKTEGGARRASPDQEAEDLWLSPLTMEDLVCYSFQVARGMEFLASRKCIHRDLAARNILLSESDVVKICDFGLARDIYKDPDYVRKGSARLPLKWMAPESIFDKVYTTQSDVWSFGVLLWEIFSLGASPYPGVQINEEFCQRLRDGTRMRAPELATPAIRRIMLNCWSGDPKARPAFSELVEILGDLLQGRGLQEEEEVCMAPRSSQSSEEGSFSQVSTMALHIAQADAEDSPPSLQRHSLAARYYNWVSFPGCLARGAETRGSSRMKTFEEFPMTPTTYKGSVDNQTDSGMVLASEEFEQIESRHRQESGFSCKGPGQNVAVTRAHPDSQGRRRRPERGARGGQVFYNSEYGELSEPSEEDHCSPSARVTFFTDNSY
Sequence of Vascular endothelial growth factor receptor 2 (P35968 whole entry): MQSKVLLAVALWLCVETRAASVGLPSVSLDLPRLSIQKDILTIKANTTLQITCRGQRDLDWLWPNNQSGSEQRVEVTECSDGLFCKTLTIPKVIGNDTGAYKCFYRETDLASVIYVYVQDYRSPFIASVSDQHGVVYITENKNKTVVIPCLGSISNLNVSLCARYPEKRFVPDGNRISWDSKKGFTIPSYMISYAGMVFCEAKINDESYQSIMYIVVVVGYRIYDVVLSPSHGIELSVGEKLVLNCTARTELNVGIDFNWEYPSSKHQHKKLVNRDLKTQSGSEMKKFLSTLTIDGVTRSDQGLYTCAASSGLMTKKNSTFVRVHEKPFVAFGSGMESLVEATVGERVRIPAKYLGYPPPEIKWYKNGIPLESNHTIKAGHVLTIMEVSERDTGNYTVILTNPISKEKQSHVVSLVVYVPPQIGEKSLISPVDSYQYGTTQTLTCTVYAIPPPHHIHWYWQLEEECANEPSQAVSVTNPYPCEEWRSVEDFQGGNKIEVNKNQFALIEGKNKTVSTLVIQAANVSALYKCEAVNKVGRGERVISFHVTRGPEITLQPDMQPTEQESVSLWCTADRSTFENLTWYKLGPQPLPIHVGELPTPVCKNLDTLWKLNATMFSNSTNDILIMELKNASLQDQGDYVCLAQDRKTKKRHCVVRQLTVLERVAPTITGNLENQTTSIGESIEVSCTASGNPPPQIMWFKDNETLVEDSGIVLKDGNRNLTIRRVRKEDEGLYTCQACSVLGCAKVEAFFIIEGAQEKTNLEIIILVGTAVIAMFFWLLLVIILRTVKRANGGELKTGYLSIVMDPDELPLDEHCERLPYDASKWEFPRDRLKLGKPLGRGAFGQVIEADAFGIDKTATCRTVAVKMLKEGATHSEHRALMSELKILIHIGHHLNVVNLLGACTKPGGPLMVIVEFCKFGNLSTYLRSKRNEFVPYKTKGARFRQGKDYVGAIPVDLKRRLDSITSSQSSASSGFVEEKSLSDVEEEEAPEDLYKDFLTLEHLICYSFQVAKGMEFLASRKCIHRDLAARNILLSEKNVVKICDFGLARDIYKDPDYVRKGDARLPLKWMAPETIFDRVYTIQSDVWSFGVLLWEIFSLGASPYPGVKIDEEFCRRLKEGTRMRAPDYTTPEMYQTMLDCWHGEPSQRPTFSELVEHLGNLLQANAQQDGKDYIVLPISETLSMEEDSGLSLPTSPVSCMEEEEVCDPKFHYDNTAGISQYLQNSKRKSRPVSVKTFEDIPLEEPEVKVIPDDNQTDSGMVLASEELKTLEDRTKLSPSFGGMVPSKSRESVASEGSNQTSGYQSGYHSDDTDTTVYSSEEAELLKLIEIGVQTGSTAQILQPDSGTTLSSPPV
Sequence of Fibroblast growth factor receptor 2 (P21802 whole entry): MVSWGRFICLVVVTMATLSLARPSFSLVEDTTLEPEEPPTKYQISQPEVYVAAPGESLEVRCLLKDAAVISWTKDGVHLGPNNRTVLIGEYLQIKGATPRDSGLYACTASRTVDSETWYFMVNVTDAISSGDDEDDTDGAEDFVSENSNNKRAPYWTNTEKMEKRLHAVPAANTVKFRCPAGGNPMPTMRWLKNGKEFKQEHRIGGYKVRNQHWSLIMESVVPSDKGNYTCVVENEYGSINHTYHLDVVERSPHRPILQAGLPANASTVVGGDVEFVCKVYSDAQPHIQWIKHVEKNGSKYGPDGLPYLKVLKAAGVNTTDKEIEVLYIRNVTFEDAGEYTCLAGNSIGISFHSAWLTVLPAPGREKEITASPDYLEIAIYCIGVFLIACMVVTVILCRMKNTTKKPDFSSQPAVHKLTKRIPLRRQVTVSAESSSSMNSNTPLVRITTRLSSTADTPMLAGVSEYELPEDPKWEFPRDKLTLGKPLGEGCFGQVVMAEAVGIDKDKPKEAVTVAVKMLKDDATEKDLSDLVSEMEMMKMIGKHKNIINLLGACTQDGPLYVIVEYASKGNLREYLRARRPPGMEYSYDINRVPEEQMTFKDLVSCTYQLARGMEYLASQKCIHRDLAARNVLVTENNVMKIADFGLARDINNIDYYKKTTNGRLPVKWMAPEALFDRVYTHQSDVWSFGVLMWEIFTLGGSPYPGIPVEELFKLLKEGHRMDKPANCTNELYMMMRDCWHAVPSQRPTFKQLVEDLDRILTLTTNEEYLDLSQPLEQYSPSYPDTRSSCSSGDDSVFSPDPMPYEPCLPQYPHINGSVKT
Sequence of Vascular endothelial growth factor receptor 1 (P17948 whole entry): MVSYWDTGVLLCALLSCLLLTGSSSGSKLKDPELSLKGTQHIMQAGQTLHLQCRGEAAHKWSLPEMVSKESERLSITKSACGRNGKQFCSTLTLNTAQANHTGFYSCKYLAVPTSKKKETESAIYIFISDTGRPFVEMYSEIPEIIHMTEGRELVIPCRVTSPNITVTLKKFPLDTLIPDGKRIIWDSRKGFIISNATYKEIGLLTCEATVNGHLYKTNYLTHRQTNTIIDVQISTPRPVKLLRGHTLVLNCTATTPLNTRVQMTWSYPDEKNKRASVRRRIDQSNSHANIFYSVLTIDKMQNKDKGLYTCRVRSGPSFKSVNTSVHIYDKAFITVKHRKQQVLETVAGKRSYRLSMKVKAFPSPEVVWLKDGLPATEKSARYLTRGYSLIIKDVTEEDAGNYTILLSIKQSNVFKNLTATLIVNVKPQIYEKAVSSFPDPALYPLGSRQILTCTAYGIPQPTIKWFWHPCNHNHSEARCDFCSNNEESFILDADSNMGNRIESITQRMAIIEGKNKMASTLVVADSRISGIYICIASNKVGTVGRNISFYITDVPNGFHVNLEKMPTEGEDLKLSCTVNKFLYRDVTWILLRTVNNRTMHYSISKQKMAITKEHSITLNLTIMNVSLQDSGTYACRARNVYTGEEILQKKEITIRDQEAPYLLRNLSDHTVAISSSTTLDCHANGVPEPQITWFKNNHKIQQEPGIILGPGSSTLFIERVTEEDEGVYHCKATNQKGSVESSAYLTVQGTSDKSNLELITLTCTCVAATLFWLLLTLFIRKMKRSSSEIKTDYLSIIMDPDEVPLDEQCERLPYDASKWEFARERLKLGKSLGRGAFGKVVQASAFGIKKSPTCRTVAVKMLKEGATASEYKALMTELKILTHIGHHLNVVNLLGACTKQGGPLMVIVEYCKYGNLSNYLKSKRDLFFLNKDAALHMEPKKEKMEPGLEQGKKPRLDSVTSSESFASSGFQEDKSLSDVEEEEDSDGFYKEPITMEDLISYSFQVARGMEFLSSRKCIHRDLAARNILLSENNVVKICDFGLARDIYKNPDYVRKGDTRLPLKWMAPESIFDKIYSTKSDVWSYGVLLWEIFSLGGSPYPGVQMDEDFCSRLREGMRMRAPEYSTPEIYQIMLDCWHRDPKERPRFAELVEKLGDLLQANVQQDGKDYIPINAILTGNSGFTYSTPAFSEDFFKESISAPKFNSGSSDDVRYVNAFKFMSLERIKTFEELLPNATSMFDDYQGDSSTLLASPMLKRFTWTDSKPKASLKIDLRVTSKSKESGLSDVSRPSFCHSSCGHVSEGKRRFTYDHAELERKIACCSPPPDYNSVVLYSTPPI

Structure (SMILES): CNC(=O)c1cc(COc2nnc(Nc3ccc(Cl)cc3)c3ccoc23)ccn1 [TELATINIB]
IC50 [3]: 4 nM

Structure (SMILES): COc1cc2ncnc(Sc3nnc(C)s3)c2cc1OC
inhibition in vivo at 100 mg/kg [4]: 63%
inhibition in vivo at 100 mg/kg [5]: 72%
inhibition (INH) [6]: 80%
inhibition at 10 µM [7]: 98%
IC50 [1]: 32 nM

Structure (SMILES): CNC(=O)c1cccc2cc(Oc3ccnc4cc(OCC5(N)CC5)c(OC)cc34)ccc12
IC50 [8]: 82.5 nM
IC50 [9]: 17.5 nM
IC50 [3]: 10 nM
IC50 [1]: 25 nM
IC50 [2]: 7 nM

Structure (SMILES): COc1cc2c(Oc3ccc(Nc4ccc(C(C)(C)C)cc4)cc3)ccnc2cc1OCCNCCO
IC50 [10]: 69 nM
IC50 [8]: 69 nM
IC50 [11]: 69 nM
IC50 [1]: 69 nM

Structure (SMILES): COc1cc2nccc(Oc3ccc(NC(=O)NC4CC4)c(Cl)c3)c2cc1C(N)=O [LENVATINIB]
IC50 [3]: 5.2 nM

Continued, in another order:

IC50 [1]: 77 nM
IC50 [2]: 59 nM
Structure (SMILES): CCN1CCN(Cc2ccc(-c3cc4c(N[C@H](C)c5ccccc5)ncnc4[nH]3)cc2)CC1 [AEE-788]

IC50 [12]: 22 nM
IC50 [13]: 41 nM
IC50 [11]: 10 nM
Structure (SMILES): O=C(Nc1ccc(OC(F)(F)F)cc1)c1sccc1NCc1ccnc2ccccc12 [OSI-930]

IC50 [15]: 9 nM
Structure (SMILES): NC(=O)c1c(OCc2c(F)cc(Br)cc2F)nsc1NC(=O)NCCCCN1CCCC1 [OSI-632]
TGI [14]: 85%
